# Test results published in PubChem BioAssay (NCI).
#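 These data come from cells grown in 96-well plates and exposed to compound for 48 hours at five concentrations. TGI is the concentration that stops growth completely.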
# Columns and labels:
# Experiment in all cases: growth of human tumour cells (NCI), 48 h
# NCI-H460 lung = system: NCI-H460 lung
# OVCAR-3 ovarian = system: OVCAR-3 ovarian
# HCT-15 colon = system: HCT-15 colon
# HCC-2998 colon = system: HCC-2998 colon
# UACC-257 melanoma = system: UACC-257 melanoma
# MOLT-4 leukemia = system: MOLT-4 leukemia
# NCI-H23 lung = system: NCI-H23 lung
# RXF-631 renal = system: RXF-631 renal
# A549 NSCLC = system: A549 NSCLC
# U251 CNS = system: U251 CNS
# HOP-92 NSCLC = system: HOP-92 NSCLC
# SNB-75 CNS = system: SNB-75 CNS
# HCT-116 colon = system: HCT-116 colon
# CCRF-CEM leukemia = system: CCRF-CEM leukemia
# SF-268 CNS = system: SF-268 CNS
# HL-60(TB) leukemia = system: HL-60(TB) leukemia
# EKVX NSCLC = system: EKVX NSCLC
# DMS 114 small cell lung = system: DMS 114 small cell lung
# MALME-3M melanoma = system: MALME-3M melanoma
# SK-OV-3 ovarian = system: SK-OV-3 ovarian
# SF-295 CNS = system: SF-295 CNS
# SK-MEL-2 melanoma = system: SK-MEL-2 melanoma
# OVCAR-5 ovarian = system: OVCAR-5 ovarian
# XF 498 CNS = system: XF 498 CNS
# UACC-62 melanoma = system: UACC-62 melanoma
# SNB-19 CNS = system: SNB-19 CNS
# SW-620 colon = system: SW-620 colon
# SN12C renal = system: SN12C renal
# 786-0 renal = system: 786-0 renal
# KM20L2 colon = system: KM20L2 colon
# DMS 273 small cell lung = system: DMS 273 small cell lung
# HT29 colon = system: HT29 colon
# K-562 leukemia = system: K-562 leukemia
# SK-MEL-5 melanoma = system: SK-MEL-5 melanoma
# KM12 colon = system: KM12 colon
# RPMI-8226 leukemia = system: RPMI-8226 leukemia
# LXFL 529 NSCLC = system: LXFL 529 NSCLC
# CAKI-1 renal = system: CAKI-1 renal
# SNB-78 CNS = system: SNB-78 CNS
# UO-31 renal = system: UO-31 renal
# TK-10 renal = system: TK-10 renal
# RXF 393 renal = system: RXF 393 renal
# SF-539 CNS = system: SF-539 CNS
# OVCAR-4 ovarian = system: OVCAR-4 ovarian
# A498 renal = system: A498 renal
# M19-MEL melanoma = system: M19-MEL melanoma
# OVCAR-8 ovarian = system: OVCAR-8 ovarian
# HOP-62 NSCLC = system: HOP-62 NSCLC
# ACHN renal = system: ACHN renal
# HOP-18 NSCLC = system: HOP-18 NSCLC
# COLO 205 colon = system: COLO 205 colon
# LOX IMVI melanoma = system: LOX IMVI melanoma
# DLD-1 colon = system: DLD-1 colon
# NCI-H522 lung = system: NCI-H522 lung
# M14 melanoma = system: M14 melanoma
# IGROV1 ovarian = system: IGROV1 ovarian
# SK-MEL-28 melanoma = system: SK-MEL-28 melanoma
# NCI-H226 lung = system: NCI-H226 lung
compound,measurement,setting,value
Cc1nc2c(o1)C(=Nc1ccccc1)c1ccccc1C2=Nc1ccccc1,TGI,NCI-H460 lung,> 100 µM
same,TGI,OVCAR-3 ovarian,> 100 µM
same,TGI,HCT-15 colon,32 µM
same,TGI,HCC-2998 colon,> 100 µM
same,TGI,UACC-257 melanoma,> 100 µM
same,TGI,MOLT-4 leukemia,> 100 µM
same,TGI,NCI-H23 lung,> 100 µM
same,TGI,RXF-631 renal,> 100 µM
same,TGI,A549 NSCLC,> 100 µM
same,TGI,U251 CNS,> 100 µM
same,TGI,HOP-92 NSCLC,> 100 µM
same,TGI,SNB-75 CNS,> 100 µM
same,TGI,HCT-116 colon,> 100 µM
same,TGI,CCRF-CEM leukemia,> 100 µM
same,TGI,SF-268 CNS,> 100 µM
same,TGI,HL-60(TB) leukemia,> 100 µM
same,TGI,EKVX NSCLC,> 100 µM
same,TGI,DMS 114 small cell lung,> 100 µM
same,TGI,MALME-3M melanoma,> 100 µM
same,TGI,SK-OV-3 ovarian,> 100 µM
same,TGI,SF-295 CNS,> 100 µM
same,TGI,SK-MEL-2 melanoma,> 100 µM
same,TGI,OVCAR-5 ovarian,> 100 µM
same,TGI,XF 498 CNS,> 100 µM
same,TGI,UACC-62 melanoma,> 100 µM
same,TGI,SNB-19 CNS,> 100 µM
same,TGI,SW-620 colon,41.3 µM
same,TGI,SN12C renal,> 100 µM
same,TGI,786-0 renal,> 100 µM
same,TGI,KM20L2 colon,> 100 µM
same,TGI,DMS 273 small cell lung,> 100 µM
same,TGI,HT29 colon,> 100 µM
same,TGI,K-562 leukemia,> 100 µM
same,TGI,SK-MEL-5 melanoma,> 100 µM
same,TGI,KM12 colon,> 100 µM
same,TGI,RPMI-8226 leukemia,> 100 µM
same,TGI,LXFL 529 NSCLC,> 100 µM
same,TGI,CAKI-1 renal,> 100 µM
same,TGI,SNB-78 CNS,> 100 µM
same,TGI,UO-31 renal,> 100 µM
same,TGI,TK-10 renal,> 100 µM
same,TGI,RXF 393 renal,> 100 µM
same,TGI,SF-539 CNS,> 100 µM
same,TGI,OVCAR-4 ovarian,> 100 µM
same,TGI,A498 renal,> 100 µM
same,TGI,M19-MEL melanoma,> 100 µM
same,TGI,OVCAR-8 ovarian,> 100 µM
same,TGI,HOP-62 NSCLC,> 100 µM
same,TGI,ACHN renal,> 100 µM
same,TGI,HOP-18 NSCLC,> 100 µM
same,TGI,COLO 205 colon,> 100 µM
same,TGI,LOX IMVI melanoma,> 100 µM
same,TGI,DLD-1 colon,> 100 µM
same,TGI,NCI-H522 lung,> 100 µM
same,TGI,M14 melanoma,> 100 µM
same,TGI,IGROV1 ovarian,> 100 µM
Nc1ccc(C(=O)N/C(=C\C=C\c2ccco2)c2nc3c4c(ccc3[nH]2)C(=O)c2ccccc2C4=O)cc1,TGI,OVCAR-3 ovarian,> 100 µM
same,TGI,HCT-15 colon,> 100 µM
same,TGI,HCC-2998 colon,> 100 µM
same,TGI,UACC-257 melanoma,> 100 µM
same,TGI,MOLT-4 leukemia,55.6 µM
same,TGI,NCI-H23 lung,> 100 µM
same,TGI,RXF-631 renal,> 100 µM
same,TGI,A549 NSCLC,97 µM
same,TGI,U251 CNS,> 100 µM
same,TGI,HOP-92 NSCLC,> 100 µM
same,TGI,SNB-75 CNS,62.1 µM
same,TGI,HCT-116 colon,> 100 µM
same,TGI,CCRF-CEM leukemia,> 100 µM
same,TGI,SF-268 CNS,> 100 µM
same,TGI,EKVX NSCLC,> 100 µM
same,TGI,DMS 114 small cell lung,> 100 µM
same,TGI,MALME-3M melanoma,> 100 µM
same,TGI,SK-OV-3 ovarian,81.3 µM
same,TGI,SF-295 CNS,> 100 µM
same,TGI,SK-MEL-2 melanoma,78.6 µM
same,TGI,OVCAR-5 ovarian,> 100 µM
same,TGI,XF 498 CNS,> 100 µM
same,TGI,UACC-62 melanoma,> 100 µM
same,TGI,SNB-19 CNS,> 100 µM
same,TGI,SW-620 colon,> 100 µM
same,TGI,SK-MEL-28 melanoma,> 100 µM
same,TGI,SN12C renal,> 100 µM
same,TGI,786-0 renal,> 100 µM
same,TGI,KM20L2 colon,> 100 µM
same,TGI,DMS 273 small cell lung,> 100 µM
same,TGI,HT29 colon,> 100 µM
same,TGI,K-562 leukemia,> 100 µM
same,TGI,SK-MEL-5 melanoma,> 100 µM
same,TGI,KM12 colon,> 100 µM
same,TGI,RPMI-8226 leukemia,> 100 µM
same,TGI,LXFL 529 NSCLC,> 100 µM
same,TGI,CAKI-1 renal,> 100 µM
same,TGI,SNB-78 CNS,> 100 µM
same,TGI,UO-31 renal,17.9 µM
same,TGI,TK-10 renal,82 µM
same,TGI,RXF 393 renal,95 µM
same,TGI,SF-539 CNS,> 100 µM
same,TGI,OVCAR-4 ovarian,> 100 µM
same,TGI,A498 renal,> 100 µM
same,TGI,M19-MEL melanoma,> 100 µM
same,TGI,OVCAR-8 ovarian,> 100 µM
same,TGI,HOP-62 NSCLC,> 100 µM
same,TGI,ACHN renal,82 µM
same,TGI,HOP-18 NSCLC,> 100 µM
same,TGI,COLO 205 colon,> 100 µM
same,TGI,LOX IMVI melanoma,> 100 µM
same,TGI,DLD-1 colon,58.3 µM
same,TGI,NCI-H522 lung,> 100 µM
same,TGI,M14 melanoma,> 100 µM
same,TGI,IGROV1 ovarian,> 100 µM
O=C(O)C1CCC(=O)N1C(=O)C(Cl)c1ccccc1 (configuration not stated),TGI,NCI-H460 lung,> 100 µM
same,TGI,OVCAR-3 ovarian,> 100 µM
same,TGI,HCT-15 colon,> 100 µM
same,TGI,HCC-2998 colon,> 100 µM
same,TGI,UACC-257 melanoma,> 100 µM
same,TGI,MOLT-4 leukemia,> 100 µM
same,TGI,NCI-H23 lung,> 100 µM
same,TGI,RXF-631 renal,> 100 µM
same,TGI,A549 NSCLC,> 100 µM
same,TGI,U251 CNS,> 100 µM
same,TGI,HOP-92 NSCLC,> 100 µM
same,TGI,SNB-75 CNS,> 100 µM
same,TGI,HCT-116 colon,> 100 µM
same,TGI,CCRF-CEM leukemia,> 100 µM
same,TGI,SF-268 CNS,> 100 µM
same,TGI,NCI-H226 lung,> 100 µM
same,TGI,HL-60(TB) leukemia,> 100 µM
same,TGI,EKVX NSCLC,> 100 µM
same,TGI,DMS 114 small cell lung,> 100 µM
same,TGI,MALME-3M melanoma,> 100 µM
same,TGI,SK-OV-3 ovarian,> 100 µM
same,TGI,SF-295 CNS,> 100 µM
same,TGI,SK-MEL-2 melanoma,> 100 µM
same,TGI,OVCAR-5 ovarian,> 100 µM
same,TGI,XF 498 CNS,> 100 µM
same,TGI,UACC-62 melanoma,> 100 µM
same,TGI,SNB-19 CNS,> 100 µM
same,TGI,SW-620 colon,> 100 µM
same,TGI,SK-MEL-28 melanoma,> 100 µM
same,TGI,SN12C renal,> 100 µM
same,TGI,786-0 renal,> 100 µM
same,TGI,KM20L2 colon,> 100 µM
same,TGI,DMS 273 small cell lung,> 100 µM
same,TGI,HT29 colon,> 100 µM
same,TGI,K-562 leukemia,> 100 µM
same,TGI,SK-MEL-5 melanoma,> 100 µM
same,TGI,KM12 colon,> 100 µM
same,TGI,RPMI-8226 leukemia,> 100 µM
same,TGI,LXFL 529 NSCLC,> 100 µM
same,TGI,CAKI-1 renal,> 100 µM
same,TGI,SNB-78 CNS,> 100 µM
same,TGI,UO-31 renal,> 100 µM
same,TGI,TK-10 renal,> 100 µM
same,TGI,OVCAR-4 ovarian,> 100 µM
same,TGI,A498 renal,> 100 µM
same,TGI,M19-MEL melanoma,> 100 µM
same,TGI,OVCAR-8 ovarian,> 100 µM
same,TGI,HOP-62 NSCLC,> 100 µM
same,TGI,ACHN renal,> 100 µM
same,TGI,HOP-18 NSCLC,> 100 µM
same,TGI,COLO 205 colon,> 100 µM
same,TGI,LOX IMVI melanoma,> 100 µM
same,TGI,DLD-1 colon,> 100 µM
same,TGI,NCI-H522 lung,> 100 µM
same,TGI,M14 melanoma,> 100 µM
same,TGI,IGROV1 ovarian,> 100 µM
